Patent publication US20230158104A1, “COMPOUNDS FOR USE IN AUTOIMMUNE CONDITIONS” (priority 2020, published 2023)
Where “and” joins values, the source holds several entries; their conditions need not be identical. Equal values may be shown once. Entries after “also recorded” stand apart in the source; their conditions may differ. Read-outs that look alike come from different tables or passages of the source. Marks after values point to notes of the source that are not given here.

Assays:
[1] = tested on: LPS-trigged cytokine secretion in alveolar macrophages; assay: Ex vivo LPS-B5-triggered cytokine secretion in bronchoalveolar lavage cells of treated mice; conditions: mice 1 mg/kg i.v.
Description: To that end mice were injected i.v. with plitidepsin (1 mg/kg) or vehicle and 12 hours after administration bronchoalveolar lavage fluid (BAL) was collected. Cells were plated and treated ex-vivo or not with 15 μg/mL of LPS-B5 for 3 or 6 hours and secreted cytokines were measured.
Mice were randomized into groups of five animals to receive the treatments. Mice were injected intra venous (i.v.) with plitidepsin (1 mg/kg) and 12 hours after administration were euthanized. Control group received plitidepsin vehicle diluted with saline (Cremophor/Ethanol/Water). Bronchoalveolar lavage fluid (BAL) of each group was collected and centrifugated to obtain bronchoalveolar lavage cells. Cells underwent red blood cell lysis (Roche) and were plated and treated ex-vivo or not with 15 μg/mL of LPS-B5 for 3 or 6 hours. Secreted cytokines were measured using highly specific and sensitive ELISA kits. Mouse IL-6, mouse IL-10 and mouse TNF DuoSet ELISA kits were obtained from R&D Systems and performed as described by the manufacturer.

[2] = tested on: cytokine secretion induced by Resiquimod in THP-1 cells; assay: Plitidepsin pre-treatment of THP-1 NFκB luc cells before Resiquimod stimulus; assay type: cell-based, human; conditions: 1, 10 or 50 nM added 8 hours before Resiquimod 2.5 or 5 μg/mL; measured at 24 hours
Description: At 0 time THP-1 cells were treated with 1 nM, 10 nM or 50 nM APL or DMSO (0.2%) followed by stimulus with Resiquimod at 2.5 or 5 μg/mL at 8 hours. At 24 hours cytokines or cell viability was measured.
In a further in vitro experiment, the effect of plitidepsin (APL) pre-treatment on THP-1 cells was studied. Using a THP-1 NFκB luc line, 1, 10 or 50 nM of APL or DMSO (0.2%) was added 8 hours before stimulus with Resiquimod (RQ) at 2.5 or 5 μg/mL. RQ is a TLR7/8 agonist and mimics ssRNA. At 24 hours the level of cytokines or cell viability was measured.

[3] = tested on: resiquimod (RQ)-trigged cytokine secretion in BALF; assay: Resiquimod intranasal inflammation model, TNFα in BALF; conditions: mice 1 mg/kg i.v. 1 hour before Resiquimod 50 μg/mouse intranasal; 1 or 3 hours after RQ
Description: We further checked whether plitidepsin inhibits resiquimod (RQ)-trigged cytokine secretion in BALF. Mice were injected i.v. with plitidepsin (1 mg/kg) or vehicle 1 hour before a 50 μg/mouse intranasal inoculation with resiquimod. At 1 or 3 hours after intranasal administration of RQ bronchoalveolar lavage fluid (BALF) was collected. Cells were plated and secreted cytokines were measured.
In another inflammation model, mice were randomized into groups of two animals to receive the treatments. Mice were challenged with plitidepsin (1 mg/kg) intra venous (i.v.) followed by Resiquimod (50 μg/mouse, intranasal) 1 hour latter. The control group received plitidepsin vehicle (Cremophor/Ethanol/Water) diluted with saline. One and 3 hours later, animals were euthanized, bronchoalveolar lavage collected (a total of 1.2 ml, PBS) and then, TNFα quantified by ELISA kits.

[4] = tested on: THP-1 cells; assay: MTT cell proliferation assay (cytotoxicity control); assay type: cell-based, human; conditions: activators combined with 100 nM plitidepsin, 6 hours
[5] = Pharmacokinetics, plasma and lung, hamster; conditions: hamsters, single intravenous dose 0.2 mg/kg
[6] = tested on: NF-κB; assay: NF-κB transactivation luciferase assay; assay type: cell-based, human; conditions: 100 nM plitidepsin, 6 hours, with poly I:C, LPS-B5 or Resiquimod; THP-1 NF-κB-Luc cells
Description: Luminescence was measured in a Perkin-Elmer EnVision reader.

[7] = Pharmacokinetics in patients; assay type: in vivo, Human
[8] = Stability of plitidepsin drug product and reconstituted solution; assay type: physicochemical
Description: Plitidepsin will be labelled with the study protocol code, the batch number, the content, the expiry date, the storage conditions, the name of the investigator and the sponsor. The study drug will be labelled in accordance with Annex 13 of the European Good Manufacturing Practices. Plitidepsin should be stored between 2° C. and 8° C. and the vials should be kept in the outer carton to protect them from light. The drug in these conditions is stable for 60 months.
After reconstitution of the 2 mg plitidepsin vial with 4 ml of the solution for reconstitution of macrogolglycerol ricinoleate/ethanol/water for injection, the reconstituted solution should be diluted and used immediately after preparation. If not used immediately, storage times and conditions until use are the responsibility of the user. […] If storage is required before administration, solutions should be stored refrigerated and protected from light and should be used within 24 hours after reconstitution.

[9] = Pharmacokinetics, plasma and lung, rat; conditions: rats, single intravenous dose 0.2 mg/kg
[10] = Pharmacokinetics, plasma and lung, mouse
[11] = tested on: alveolar macrophages; conditions: mice, plitidepsin 1 mg/kg i.v. with LPS 20 μg/kg i.p., three hours
[12] = tested on: TLR-trigged cytokine secretion in THP-1 cells; assay: ELISA assays for secreted cytokines, TLR ligands combined with plitidepsin; conditions: 100 nM plitidepsin with TLR ligands, 6 hours, THP-1, ELISA
Description: To investigate whether plitidepsin inhibits the TLR-trigged cytokine secretion, we treated THP-1 cells with 100 ng/mL TNFα (an activator of NF-κB), 500 μg/mL poly I:C (TLR3 ligand), 10 μg/mL LPS-B5 (TLR4 ligand) or 10 μg/mL Resiquimod (TLR-7/8 ligand). The compounds were used either alone (grey bars) or combined with 100 nM of plitidepsin (red bars) for 6 hours. We compared the variations in cytokine secretion in the cell culture supernatants between the different treatments by ELISA assays.
THP1-NFκB-LUC cell cultures were treated as described above, and the culture medium was sampled at 6 hours post-treatment to assay for secreted cytokines by ELISA. Media samples were stored at 4-C. IL-8, IL-1β, IL-6 and TNFα protein secretion into culture medium was quantitated using highly specific and sensitive ELISA kits. Human IL-lb, human IL-6, human IL-8 and human TNF OptEIA™ ELISA kits were obtained from BD Biosciences and performed as described by the manufacturer. The data presented are the average of three independent experiments performed in triplicate.

[13] = tested on: COVID-19; assay type: in vivo, human
Description: All patients received the following prophylactic medications 20-30 minutes before the infusion of plitidepsin: • Diphenhydramine hydrochloride 25 mg iv or equivalent. • Ranitidine 50 mg iv or equivalent. • Dexamethasone 6.6 mg intravenous. • Ondansetron 8 mg i.v. in slow infusion of 15 minutes or equivalent.
Patients included in the study will receive treatment for 3 days.

[14] = BAL cells 12 hours after, ex vivo 15 μg/mL LPS-B5 for 3 or 6 hours, listed as plitidepsin, 1 mg/kg
[15] = Human (M/F), 0.135 mg/kg (Recommended Dose 5 mg/m2, 3-h intravenous infusion)
[16] = Human, 0.02 mg/kg (1.5 mg/patient), following 3 daily doses, estimated from population PK model
[17] = Mouse (F) C57BL6/J, 1.0 mg/kg single intravenous bolus, plasma
[18] = individual patients, PLD 2.0 mg×3

## (−)-(3S,6R,7S,10R,11S,15S,17S,20S,25aS)-11-hydroxy-3-(4-methoxybenzyl)-2,6,17-trimethyl-15-(1-methylethyl)-7-[[(2R)-4-methyl-2-[methyl[[(2S)-1-(2-oxopropanoyl)pyrrolidin-2-yl]carbonyl]amino]pentanoyl]amino]-10-[(1S)-1-methylpropyl]-20-(2-methylpropyl)tetradecahydro-15H-pyrrolo[2,1-f]-[1,15,4,7,10,20]dioxatetrazacyclotricosine-1,4,8,13,16,18,21(17H)-heptone [PLD]
[1]; BAL cells 12 hours after, ex vivo 15 μg/mL LPS-B5 for 3 or 6 hours
  secretion of IL-10 induced by LPS-B5: significantly reduce
[1]; [14]
  secretion of IL-6 induced by LPS-B5: clearly inhibited; also recorded: significantly reduce
  secretion of TNFα induced by LPS-B5: clearly inhibited; also recorded: significantly reduce
[1]; LPS-B5 ex vivo
  cell viability of CD45+ cells from bronco-alveolar lavages: unrelated to cell viability
[2]
  secretion of IL1β: inhibited
  secretion of IL6: inhibited
  secretion of IL8: inhibited
  secretion of TNF-α: inhibited
[3]
  production of TNFα in BALF: prevented the increased production
[4]
  Survival (MTT assay), cytotoxic effect: No cytotoxic effect
[5]
  lung-to-plasma ratio (lungAUC0-∞/plasmaAUC0-∞): 909
[6]
  production of luciferase (NF-κB transactivation): clearly inhibited
[7]; [15]
  AUC0-∞: 256.0 ng·h/mL
  Cl: 0.7 to 0.9 L/h/kg
  Cmax: 29.1 ng/mL
  Vdss: 29-33 L7 kg
  t1/2: 20 to 80 h
[7]; [16]
  AUC0-∞: 174.0^d ng · h/mL
  Cmax: 8.5^d ng/mL
[8]; original vial under indoor light at room temperature
  physical, chemical and microbiological stability of reconstituted concentrated solution: 6 hours
[8]; refrigerated conditions (5° C.±3° C.)
  physical, chemical and microbiological stability of reconstituted concentrated solution: 24 hours
[8]; stored between 2° C. and 8° C., in outer carton protected from light
  stability of the drug (2 mg vial, powder): 60 months
[9]
  lung-to-plasma ratio (lungAUC0-∞/plasmaAUC0-∞): 460
[10]; [17]
  AUC0-∞: 225.3 ng·h/mL
  Cl: 4.4 L/h/kg
  Cmax: 50.7 ng/mL
  Vdss: 101.8 L7 kg
  t1/2: 18.2 h
[10]; Mouse (F) C57BL6/J, single intravenous bolus
  Maximum Tolerated Dose: 1.0^a mg/kg
[10]; mice, single intravenous dose 1.0 mg/kg
  lung-to-plasma ratio (lungAUC0-∞/plasmaAUC0-∞): 133
[11]
  cytotoxic effects (CD45+ alive cells in bronchoalveolar lavage): without cytotoxic effects
  percentage of macrophages present in bronchoalveolar lavage: decrease
[12]
  production of IL-1: clearly inhibited
  production of IL-6: clearly inhibited
  production of IL-8: clearly inhibited
  production of TNFα: clearly inhibited
[13]; 45 patients, 1.5, 2.0 and 2.5 mg daily for 3 days, all 3 dose cohorts
  tolerability: well tolerated
[13]; [18]
  Hospital discharge by day: ≤ 10 days and ≤ 8 days
  PCR COVID 19 test converted to negative by day: ≤ 15 day and ≤ 7 day and still positive at day 7
  clinical outcome: major clinical improvement
[13]; mild disease, across dose cohorts (9/9)
  patients discharged by Day 15: 100%
[13]; moderate disease, across dose cohorts (23/28)
  patients discharged by Day 15: 82%
[13]; patient 5, PLD 1.5 mg×3
  Bilateral pneumonia resolved by day: ≤ 6 days
  C-reactive protein: acute fall is seen by day 2
[13]; patients 7 and 9, PLD 2.0 mg×3
  C-reactive protein: acute fall is seen by day 3
[13]; severe disease, across dose cohorts (4/7)
  patients discharged by Day 15: 57%
